Laboratory results: publication PMC9098913, “In vitro reconstitution of Escherichia coli divisome activation” (Nature Communications, 2022)

Test system: FtsA self-interaction
Assay: FRET self-interaction of His-tagged FtsAs (and His-SUMO control) on Tris-NTA membranes
Format: binding, E. coli
Method: To study colocalization of His-tagged variants of FtsA, 0.5–1 µM of Cy5 labelled His-tagged FtsAs were added to the chamber, incubated for 20 min and washed 6x with reaction buffer. […] To control the density of membrane-bound FtsA, SUVs without and with Tris-NTA lipids were mixed to obtain the respective Tris-NTA concentrations. To perform FRET/FRAP experiments, equimolar concentrations of Cy3 and Cy5 labelled His-tagged FtsAs (total 0.5–1 µM) or His-SUMO-Cys were added to a chamber and treated as above. […] FRAP experiments were performed as described before.
Bleaching the acceptor dye leads to an increase in the donor intensity, which can be used to quantify the Foerster Resonance energy transfer (FRET)[48]. FRET efficiency was quantified with E%=Ipost/Ipost+Ipre⋅100 , where Ipost is the intensity of the […] and Ipre is the […]. […] To extract the contribution of both processes, we adjusted a routine recently published by Gerganova et al.[33]. In short, the code provides the contribution of both modes of recovery by analysing the shape of the fluorescence recovery profile. […] Contribution of diffusion leads to a change of the slope of the outer borders of the bleached region (S4h right). Thus, by measuring the change of the slope of the border recovery, diffusion and simple on/off binding can be distinguished. We developed “FRAPdiff”, a graphical user interface, which uses the original fit routine by David Rutkowski. It can be used directly on.tiff movies with annotated bleach regions as ImageJ ROIs. In addition, we added optional bleach correction, user selectable projection axis (x or y), and optional mirroring of the recovery profiles, if bleaching was not symmetric. The original fit routine for estimating the recovery and diffusion dynamics can be found at https://github.com/davidmrutkowski/1DReflectingDiffusion. FRAPdiff is available at 10.5281/zenodo.6400639[49] under the GPLv3 open-source license.

FtsA-His6: FtsA WT (1-405) with amphipathic helix replaced by C-terminal His-tag
FRET efficiency (0.1% Tris NTA, + FtsZ; Exp1): 3.78%
FRET efficiency (0.1% Tris NTA, + FtsZ; Exp2): 0.99%
FRET efficiency (0.1% Tris NTA, + FtsZ; mean, n = 2): 2.39%
FRET efficiency (0.1% Tris NTA, without FtsZ; Exp1): 3.14%
FRET efficiency (0.1% Tris NTA, without FtsZ; Exp2): 0.59%
FRET efficiency (0.1% Tris NTA, without FtsZ; mean, n = 2): 1.87%
FRET efficiency (0.4% Tris NTA; + FtsZ; Exp1): 6.34%
FRET efficiency (0.4% Tris NTA; + FtsZ; Exp2): 13.91%
FRET efficiency (0.4% Tris NTA; + FtsZ; Mean, n = 2): 10.12%
FRET efficiency (0.4% Tris NTA; without FtsZ; Exp1): 8.25%
FRET efficiency (0.4% Tris NTA; without FtsZ; Exp2): 10.75%
FRET efficiency (0.4% Tris NTA; without FtsZ; Mean, n = 2): 9.50%
FRET efficiency (0.6% Tris NTA; + FtsZ; Exp1): 12.72%
FRET efficiency (0.6% Tris NTA; + FtsZ; Exp2): 16.89%
FRET efficiency (0.6% Tris NTA; + FtsZ; Exp3): 21.31%
FRET efficiency (0.6% Tris NTA; + FtsZ; Mean, n = 3): 16.97%
FRET efficiency (0.6% Tris NTA; without FtsZ; Exp1): 13.98%
FRET efficiency (0.6% Tris NTA; without FtsZ; Exp2): 15.14%
FRET efficiency (0.6% Tris NTA; without FtsZ; Exp3): 19.21%
FRET efficiency (0.6% Tris NTA; without FtsZ; Mean, n = 3 (His6-SUMO n = 2)): 16.11%
FRET efficiency (0.8% Tris NTA; + FtsZ; Exp1): 13.61%
FRET efficiency (0.8% Tris NTA; + FtsZ; Exp2): 19.13%
FRET efficiency (0.8% Tris NTA; + FtsZ; Exp3): 15.44%
FRET efficiency (0.8% Tris NTA; + FtsZ; Mean, n = 3): 16.06%
FRET efficiency (0.8% Tris NTA; without FtsZ; Exp1): 14.15%
FRET efficiency (0.8% Tris NTA; without FtsZ; Exp2): 18.41%
FRET efficiency (0.8% Tris NTA; without FtsZ; Exp3): 13.88%
FRET efficiency (0.8% Tris NTA; without FtsZ; Mean, n = 3 (His6-SUMO n = 2)): 15.48%
FRET efficiency (1% Tris NTA; + FtsZ; Exp1): 18.34%
FRET efficiency (1% Tris NTA; + FtsZ; Exp2): 21.19%
FRET efficiency (1% Tris NTA; + FtsZ; Exp3): 19.01%
FRET efficiency (1% Tris NTA; + FtsZ; Mean, n = 3 (R286W-His6 n = 4)): 19.51%
FRET efficiency (1% Tris NTA; without FtsZ; Exp1): 16.93%
FRET efficiency (1% Tris NTA; without FtsZ; Exp2): 19.88%
FRET efficiency (1% Tris NTA; without FtsZ; Exp3): 16.24%
FRET efficiency (1% Tris NTA; without FtsZ; Mean, n = 3 (R286W-His6 n = 4)): 17.68%
FRET efficiency (2% Tris NTA; + FtsZ; Exp1): 32.05%
FRET efficiency (2% Tris NTA; + FtsZ; Exp2): 31.95%
FRET efficiency (2% Tris NTA; + FtsZ; Mean, n = 2): 32.00%
FRET efficiency (2% Tris NTA; without FtsZ; Exp1): 32.49%
FRET efficiency (2% Tris NTA; without FtsZ; Exp2): 23.34%
FRET efficiency (2% Tris NTA; without FtsZ; Mean, n = 2): 27.92%
FRET efficiency (Tris 0.40 %, + FtsZ; mean): 10.12%
FRET efficiency (Tris 0.40 %, without FtsZ; mean): 9.50%
FRET efficiency (Tris 0.60 %, + FtsZ; mean): 16.97%
FRET efficiency (Tris 0.60 %, without FtsZ; mean): 16.11%
FRET efficiency (Tris 0.80 %, + FtsZ; mean): 16.06%
FRET efficiency (Tris 0.80 %, without FtsZ; mean): 15.48%
FRET efficiency (Tris 1.00 %, + FtsZ; mean): 19.51%
FRET efficiency (Tris 1.00 %, without FtsZ; mean): 17.68%
FRET efficiency (Tris 2.00 %, + FtsZ; mean): 32.00%
FRET efficiency (Tris 2.00 %, without FtsZ; mean): 27.92%
FRET efficiency (Tris […], + FtsZ; mean): 28.93%
FRET efficiency (Tris […], without FtsZ; mean): 25.95%
FRET efficiency ([…] Tris NTA, + FtsZ; Exp1): 2.38%
FRET efficiency ([…] Tris NTA, + FtsZ; Exp2): 10.40%
FRET efficiency ([…] Tris NTA, + FtsZ; mean, n = 2): 6.39%
FRET efficiency ([…] Tris NTA, without FtsZ; Exp1): 3.80%
FRET efficiency ([…] Tris NTA, without FtsZ; Exp2): 9.45%
FRET efficiency ([…] Tris NTA, without FtsZ; mean, n = 2; listed as FtsA WT-His6): 6.62%
FRET efficiency ([…] Tris NTA, without FtsZ; mean, n = 2; listed as WT-His6): 6.63%
FRET efficiency ([…] Tris NTA; + FtsZ; Exp1): 34.73%
FRET efficiency ([…] Tris NTA; + FtsZ; Exp2): 27.23%
FRET efficiency ([…] Tris NTA; + FtsZ; Exp3): 24.81%
FRET efficiency ([…] Tris NTA; + FtsZ; Mean, n = 3): 28.93%
FRET efficiency ([…] Tris NTA; without FtsZ; Exp1): 28.26%
FRET efficiency ([…] Tris NTA; without FtsZ; Exp2): 26.94%
FRET efficiency ([…] Tris NTA; without FtsZ; Exp3): 22.66%
FRET efficiency ([…] Tris NTA; without FtsZ; Mean, n = 3): 25.95%
FRET efficiency ([…] Tris-NTA; + N (FtsNcyto); mean): 26.95%
FRET efficiency ([…] Tris-NTA; + N/Z (FtsNcyto and FtsZ); mean): 24.12%
FRET efficiency ([…] Tris-NTA; + N/Z; Exp. 1): 22.20%
FRET efficiency ([…] Tris-NTA; + N/Z; Exp. 2): 29.86%
FRET efficiency ([…] Tris-NTA; + N/Z; Exp. 3): 20.31%
FRET efficiency ([…] Tris-NTA; + N; Exp. 1): 28.94%
FRET efficiency ([…] Tris-NTA; + N; Exp. 2): 24.96%
FRET efficiency ([…] Tris-NTA; + N; Exp. 3): 26.96%
FRET efficiency ([…] Tris-NTA; + Z (FtsZ); mean): 27.70%
FRET efficiency ([…] Tris-NTA; + Z; Exp. 1): 34.73%
FRET efficiency ([…] Tris-NTA; + Z; Exp. 2): 27.23%
FRET efficiency ([…] Tris-NTA; + Z; Exp. 3): 24.81%
FRET efficiency ([…] Tris-NTA; + Z; Exp. 4): 24.02%
FRET efficiency ([…] Tris-NTA; alone; Exp. 1): 28.26%
FRET efficiency ([…] Tris-NTA; alone; Exp. 2): 26.94%
FRET efficiency ([…] Tris-NTA; alone; Exp. 3): 22.66%
FRET efficiency ([…] Tris-NTA; alone; Exp. 4): 20.84%
FRET efficiency ([…] Tris-NTA; alone; mean): 24.68%
